Test results reported in patent EP4656642A1, “ESTROGEN RECEPTOR PROTEOLYSIS TARGETING CHIMERA COMPOUND AND USE THEREOF” (GAN & LEE PHARM CO., LTD, priority 2023, dated 2024).

Target: T1, AR protein (Homo sapiens, UniProt P10275, T878A)
T1 construct: host or cells: LNCaP FGC
T1 sequence (P10275 1-920 T878A): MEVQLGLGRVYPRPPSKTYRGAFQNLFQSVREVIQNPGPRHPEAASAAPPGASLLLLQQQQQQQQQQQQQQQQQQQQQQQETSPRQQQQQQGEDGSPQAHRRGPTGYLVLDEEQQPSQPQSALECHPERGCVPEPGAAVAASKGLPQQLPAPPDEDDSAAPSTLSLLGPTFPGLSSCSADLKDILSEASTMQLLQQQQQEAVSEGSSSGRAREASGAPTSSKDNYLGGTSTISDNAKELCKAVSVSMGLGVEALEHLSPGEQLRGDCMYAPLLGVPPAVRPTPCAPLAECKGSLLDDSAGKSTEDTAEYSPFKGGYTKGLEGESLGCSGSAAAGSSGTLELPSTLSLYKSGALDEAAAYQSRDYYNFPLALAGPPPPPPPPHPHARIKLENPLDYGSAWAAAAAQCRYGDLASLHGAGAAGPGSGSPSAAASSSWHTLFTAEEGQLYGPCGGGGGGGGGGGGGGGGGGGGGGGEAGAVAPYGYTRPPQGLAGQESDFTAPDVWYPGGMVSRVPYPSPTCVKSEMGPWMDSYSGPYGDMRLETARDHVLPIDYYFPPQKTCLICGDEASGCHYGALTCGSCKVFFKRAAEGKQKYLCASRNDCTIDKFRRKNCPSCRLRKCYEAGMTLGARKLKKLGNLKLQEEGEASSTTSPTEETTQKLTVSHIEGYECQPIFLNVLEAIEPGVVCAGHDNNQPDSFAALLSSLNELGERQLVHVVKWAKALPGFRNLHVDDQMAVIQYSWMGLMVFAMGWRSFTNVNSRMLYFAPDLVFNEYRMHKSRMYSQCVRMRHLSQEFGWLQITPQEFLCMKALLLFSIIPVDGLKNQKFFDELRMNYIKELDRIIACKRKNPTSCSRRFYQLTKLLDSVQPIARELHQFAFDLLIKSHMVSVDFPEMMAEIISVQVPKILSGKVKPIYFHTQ
Assay: Degradation of AR protein in LNCAP cells (Western blot, 8 h)
Type: cell-based
Conditions: LNCaP FGC cells
Procedure: After 8 h, the culture medium was discarded, and the cells were washed with PBS. After the cells were washed with PBS, RIPA lysis buffer containing 1% Protease Inhibitor Cocktail was added, and the total protein extract was obtained after lysis and centrifugation, and the protein concentration in the extract was detected by BCA method. Protein electrophoresis was carried out by SDS-PAGE, after which the proteins were transferred to PVDF (Millipore Sigma Catalog No. PSRP010R5) membrane by 100V constant voltage electrotransfer for 60 min, and the PVDF membrane was placed in 1×TBST solution with 5% milk and blocked at room temperature for 1h. […] The primary antibody solution was discarded, and the PVDF membrane was washed three times with 1× TBST for 5 min each. […] The secondary antibody solution was discarded, and the PVDF membrane was washed three times with 1× TBST for 5 min each. Western membrane imaging was performed using a dual-color infrared laser imaging system (Licor catalog number Odyssey CLX). Bands were analyzed in grayscale using the software Image Studio. For each sample, GAPDH protein bands were detected as internal reference. The degradation rates of the AR protein for the compounds and positive control sample were calculated based on the grayscale of the protein bands.

Compound	Degradation rates of the AR protein in LNCAP cells, 10 nM (%)	Degradation rates of the AR protein in LNCAP cells, 100 nM (%)
COc1cc(O[C@H]2CC[C@H](NC(=O)c3ccc(N4CCC(C)(CN5CCC6(CC5)COc5c6ccc6c5C(=O)N(C5CCC(=O)NC5=O)C6)CC4)nn3)CC2)ccc1C#N (relative stereo) [2-261]	53	70
CC1(CN2CCC3(CC2)COc2c3ccc3c2C(=O)N(C2CCC(=O)NC2=O)C3)CCN(c2ccc(C(=O)N[C@H]3CC[C@H](Oc4ccc(C#N)c(Cl)c4)CC3)nn2)CC1 (relative stereo) [2-262]	47	68
COC1(CN2CCC3(CC2)COc2c3ccc3c2C(=O)N(C2CCC(=O)NC2=O)C3)CCN(c2ccc(C(=O)N[C@H]3CC[C@H](Oc4ccc(C#N)c(Cl)c4)CC3)nn2)CC1 (relative stereo) [2-263]	38	69
COc1cc(O[C@H]2C(C)(C)[C@H](NC(=O)c3ccc(N4CCC(C)(CN5CCC6(CC5)COc5c6ccc6c5C(=O)N(C5CCC(=O)NC5=O)C6)CC4)cc3)C2(C)C)ccc1C#N (relative stereo) [2-292]	43	78
COc1cc(O[C@H]2C(C)(C)[C@H](NC(=O)c3ccc(N4CCC(CN5CCC6(CC5)COc5c6ccc6c5C(=O)N(C5CCC(=O)NC5=O)C6)(OC)CC4)cc3)C2(C)C)ccc1C#N (relative stereo) [2-293]	62	82
N#Cc1ccc(O[C@H]2CC[C@H](NC(=O)c3ccc(N4CCC(F)(CN5CCC6(CC5)COc5c6ccc6c5C(=O)N(C5CCC(=O)NC5=O)C6)CC4)nn3)CC2)cc1Cl (relative stereo) [2-315]	33	44
COc1cc(O[C@H]2CC[C@H](NC(=O)c3ccc(N4CCC(F)(CN5CCC6(CC5)COc5c6ccc6c5C(=O)N(C5CCC(=O)NC5=O)C6)CC4)nn3)CC2)ccc1C#N (relative stereo) [2-316]	49	61
COc1cc(O[C@H]2C(C)(C)[C@H](NC(=O)c3ccc(N4CCC(CN5CCC6(CC5)COc5c6ccc6c5C(=O)N(C5CCC(=O)NC5=O)C6)CC4)cc3)C2(C)C)ccc1C#N (relative stereo) [2-318]	58	73
C[C@H]1CC2(CCN(c3ccc(N4CCC(CN5CCC6(CC5)COc5c6ccc6c5C(=O)N(C5CCC(=O)NC5=O)C6)CC4)cc3)CC2)CN1c1ccc(C#N)c(Cl)c1 (stereo partly drawn) [2-103]	55	79
